One assay concerns the target T1, human CRF2a receptor (Homo sapiens, UniProt Q13324).
T1 construct: expressed in transfected cells; host or cells: TeloHEAC cells
T1 sequence (Q13324 1-411): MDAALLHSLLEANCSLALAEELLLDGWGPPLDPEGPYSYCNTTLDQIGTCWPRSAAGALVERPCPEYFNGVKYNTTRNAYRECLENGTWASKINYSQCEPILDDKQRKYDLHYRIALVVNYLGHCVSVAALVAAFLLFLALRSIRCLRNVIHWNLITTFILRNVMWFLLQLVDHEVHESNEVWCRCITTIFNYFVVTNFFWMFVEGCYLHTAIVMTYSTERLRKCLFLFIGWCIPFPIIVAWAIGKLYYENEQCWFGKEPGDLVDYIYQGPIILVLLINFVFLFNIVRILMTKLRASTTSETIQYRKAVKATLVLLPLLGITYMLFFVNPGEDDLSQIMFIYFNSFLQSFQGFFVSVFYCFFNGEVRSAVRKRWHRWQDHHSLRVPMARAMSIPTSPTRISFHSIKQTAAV
Briefly: Activity at human CRF2a receptor, cAMP functional assay in TeloHEAC cells. Type of assay: cell-based. Particulars: TeloHEAC cells stably expressing human CRF2a receptor, relative to urocortin 2 (100 nM = 100%). The essentials: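 TeloHEAC cells stably expressing human CRF2a (10000 cells/well) were treated with 16-point 1:2 compound dilutions in HBSS/20 mM HEPES with IBMX for 30 min at 37° C. cAMP was read by HTRF (665/620 nm ratio). EC50 was the concentration giving 50% activation, with 100 nM urocortin 2 set as 100%.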

A further assay addresses T2, CFR1R receptor (Homo sapiens, UniProt P34998).
T2 construct: host or cells: CHO-K1 (clone 2)
T2 sequence (P34998 24-415): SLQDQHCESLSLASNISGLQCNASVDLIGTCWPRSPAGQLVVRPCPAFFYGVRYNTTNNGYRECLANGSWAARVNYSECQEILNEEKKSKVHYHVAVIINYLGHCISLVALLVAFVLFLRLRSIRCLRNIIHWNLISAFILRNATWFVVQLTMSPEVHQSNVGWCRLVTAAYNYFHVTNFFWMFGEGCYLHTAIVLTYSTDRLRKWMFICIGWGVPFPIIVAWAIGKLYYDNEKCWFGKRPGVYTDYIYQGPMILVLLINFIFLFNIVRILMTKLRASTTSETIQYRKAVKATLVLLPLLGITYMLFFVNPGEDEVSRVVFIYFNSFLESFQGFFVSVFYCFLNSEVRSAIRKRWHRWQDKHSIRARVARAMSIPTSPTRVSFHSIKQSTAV
Briefly: Activity at anti-target CFR1R receptor, cAMP assay in CRF1R-overexpression CHO-K1 cells. Type of assay: cell-based. Particulars: 100% = Sauvagine at 100 nM; for EC50: cAMP. The essentials:
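Grow clone 2 to near confluence at 37° C. under 5% CO2 in F12 (Hams) with 10% FBS and G418, harvest, and freeze in 10% DMSO. Thaw and plate at 4000 cells/well. Then proceed per the TeloHAEC method, normalising to Sauvagine 100 nM as maximum.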
A general note: Cyclic AMP is a second messenger, typically raised through Gs and lowered through Gi signalling.

*1 amine or outer side, *2 acyl side, *3 side chain or, on linkers, in order; H or OH if unused. Where a SMILES comes first, the peptide text is derived from it. Side-chain parts run from the residue outwards. [ ]: non-standard residue; d: D form. The star is where a group is joined. C18 diacid = O=C(O)CCCCCCCCCCCCCCCCC(=O)*; γGlu = O=C(O)[C@H](CCC(=O)[*:2])N[*:1]; NMeI = CC[C@H](C)[C@H](NC)C(=O)O; αMeL = CC(C)C[C@](C)(N)C(=O)O; Api = NC1(C(=O)O)CCNCC1; Abu = CC[C@H](N)C(=O)O; Dap = NC[C@H](N)C(=O)O; AEEA = NCCOCCOCC(=O)O

Turning to `CC[C@H](C)[C@H](NC(C)=O)C(=O)N[C@H](C(=O)N[C@@H](CC(C)C)C(=O)N[C@@H](CO)C(=O)N[C@@H](CC(C)C)C(=O)N[C@@H](CC(=O)O)C(=O)N[C@@H](C(=O)N1CCC[C@H]1C(=O)N[C@H](C(=O)N[C@@H](CCCCN)C(=O)N[C@@](C)(CC(C)C)C(=O)N[C@@H](CCCCNC(=O)COCCOCCNC(=O)COCCOCCNC(=O)CC[C@H](NC(=O)CCCCCCCCCCCCCCCCC(=O)O)C(=O)O)C(=O)N[C@@H](CCCCN)C(=O)N[C@H](C(=O)N[C@@H](CC(C)C)C(=O)N[C@@H](CC(C)C)C(=O)N[C@@H](CCC(=O)O)C(=O)N[C@@H](CCC(N)=O)C(=O)N[C@@H](CCC(=O)O)C(=O)N[C@@H](CCCCN)C(=O)N[C@@H](CCC(N)=O)C(=O)N[C@@H](CCCCN)C(=O)N[C@@H](CCCCN)C(=O)N[C@@H](CCC(N)=O)C(=O)N[C@@H](CCCNC(=N)N)C(=O)N[C@@H](CCC(=O)O)C(=O)N[C@@H](CCC(N)=O)C(=O)N[C@@H](C)C(=O)N[C@@H](CCC(=O)O)C(=O)N[C@H](C(=O)N[C@@H](CC(N)=O)C(=O)N[C@@H](C)C(=O)N[C@@H](CCC(N)=O)C(=O)N[C@H](C(=O)N[C@@H](CC(C)C)C(=O)N[C@@H](C)C(=O)N[C@@H](CCC(N)=O)C(=O)N[C@H](C(N)=O)C(C)C)[C@@H](C)CC)[C@@H](C)O)[C@@H](C)CC)[C@@H](C)CC)C(C)C)C(C)C` [compound 112] (Ac-IVLSLD[dV]PIK[αMeL]K([AEEA-AEEA-γGlu-C18 diacid])KILLEQEKQKKQREQAETNAQILAQV-NH2), the EC50 on human CRF2a receptor turned out to be 0.28 nM. In addition, at CFR1R receptor, the “Emax (% I)” value was 3 % I and the EC50 was over 250 nM.

`CC[C@H](NC(=O)[C@H](CC(N)=O)NC(=O)[C@@H](NC(=O)[C@H](CCC(=O)O)NC(=O)[C@H](C)NC(=O)[C@H](CCC(N)=O)NC(=O)[C@H](CCC(=O)O)NC(=O)[C@H](CCCNC(=N)N)NC(=O)[C@H](CCC(N)=O)NC(=O)[C@H](CCCCN)NC(=O)[C@H](CCCCN)NC(=O)[C@H](CCC(N)=O)NC(=O)[C@H](CCCCN)NC(=O)[C@H](CCC(=O)O)NC(=O)[C@H](CCC(N)=O)NC(=O)[C@H](CCC(=O)O)NC(=O)[C@H](CC(C)C)NC(=O)[C@H](CC(C)C)NC(=O)[C@@H](NC(=O)[C@H](CCCCN)NC(=O)[C@H](CCCCNC(=O)COCCOCCNC(=O)COCCOCCNC(=O)CC[C@H](NC(=O)CCCCCCCCCCCCCCCCC(=O)O)C(=O)O)NC(=O)[C@H](CC(C)C)NC(=O)[C@H](CCCCN)NC(=O)[C@@H](NC(=O)[C@@H]1CCCN1C(=O)[C@H](NC(=O)[C@H](CC(=O)O)NC(=O)[C@H](CC(C)C)NC(=O)[C@H](CO)NC(=O)[C@H](CC(C)C)NC(=O)[C@@H](NC(=O)[C@@H](NC)[C@@H](C)CC)C(C)C)C(C)C)[C@@H](C)CC)[C@@H](C)CC)[C@@H](C)O)C(=O)N[C@@H](CCC(N)=O)C(=O)N[C@H](C(=O)N[C@@H](CC(C)C)C(=O)N[C@@H](C)C(=O)N[C@@H](CCC(N)=O)C(=O)N[C@H](C(N)=O)C(C)C)[C@@H](C)CC` [compound 114] (H-[NMeI]VLSLD[dV]PIKLK([AEEA-AEEA-γGlu-C18 diacid])KILLEQEKQKKQREQAETN[Abu]QILAQV-NH2): the concentration giving a half-maximal response (EC50) on human CRF2a receptor is 0.18 nM; at CFR1R receptor, over 250 nM. In addition, at CFR1R receptor, the “Emax (% I)” value is listed as 6 % I.

In turn, `CC[C@H](C)[C@H](NC)C(=O)N[C@H](C(=O)N[C@@H](CC(C)C)C(=O)N[C@@H](CO)C(=O)N[C@@H](CC(C)C)C(=O)N[C@@H](CC(=O)O)C(=O)N[C@@H](C(=O)N1CCC[C@H]1C(=O)N[C@H](C(=O)N[C@@H](CCCCN)C(=O)N[C@@H](CC(C)C)C(=O)N[C@@H](CCCCNC(=O)COCCOCCNC(=O)COCCOCCNC(=O)CC[C@H](NC(=O)CCCCCCCCCCCCCCCCC(=O)O)C(=O)O)C(=O)N[C@@H](CCCCN)C(=O)N[C@H](C(=O)N[C@@H](CC(C)C)C(=O)N[C@@H](CC(C)C)C(=O)N[C@@H](CCC(=O)O)C(=O)N[C@@H](CCC(N)=O)C(=O)N[C@@H](CCC(=O)O)C(=O)N[C@@H](CCCCN)C(=O)N[C@@H](CCC(N)=O)C(=O)N[C@@H](CCCCN)C(=O)N[C@@H](CCCCN)C(=O)N[C@@H](CCC(N)=O)C(=O)N[C@@H](CCCNC(=N)N)C(=O)N[C@@H](CCC(=O)O)C(=O)N[C@@H](CCC(N)=O)C(=O)N[C@@H](C)C(=O)N[C@@H](CCC(=O)O)C(=O)N[C@H](C(=O)N[C@@H](CC(N)=O)C(=O)N[C@@H](CN)C(=O)N[C@@H](CCC(N)=O)C(=O)N[C@H](C(=O)N[C@@H](CC(C)C)C(=O)N[C@@H](C)C(=O)N[C@@H](CCC(N)=O)C(=O)N[C@H](C(N)=O)C(C)C)[C@@H](C)CC)[C@@H](C)O)[C@@H](C)CC)[C@@H](C)CC)C(C)C)C(C)C` [compound 115] (H-[NMeI]VLSLD[dV]PIKLK([AEEA-AEEA-γGlu-C18 diacid])KILLEQEKQKKQREQAETN[Dap]QILAQV-NH2) came in with an EC50 at human CRF2a receptor of 0.76 nM. At CFR1R receptor, the “Emax (% I)” value is given as 4 % I and the concentration for a half-maximal effect (EC50) was over 250 nM.

The compound `CC[C@H](C)[C@H](NC)C(=O)N[C@H](C(=O)N[C@@H](CC(C)C)C(=O)N[C@@H](CO)C(=O)N[C@@H](CC(C)C)C(=O)N[C@@H](CC(=O)O)C(=O)N[C@@H](C(=O)N1CCC[C@H]1C(=O)N[C@H](C(=O)N[C@@H](CCCCN)C(=O)N[C@@H](CC(C)C)C(=O)N[C@@H](CCCCNC(=O)COCCOCCNC(=O)COCCOCCNC(=O)CC[C@H](NC(=O)CCCCCCCCCCCCCCCCC(=O)O)C(=O)O)C(=O)N[C@@H](CCCCN)C(=O)N[C@H](C(=O)N[C@@H](CC(C)C)C(=O)N[C@@H](CC(C)C)C(=O)N[C@@H](CCC(=O)O)C(=O)N[C@@H](CCC(N)=O)C(=O)N[C@@H](CCC(=O)O)C(=O)N[C@@H](CCCCN)C(=O)N[C@@H](CCC(N)=O)C(=O)N[C@@H](CCCCN)C(=O)N[C@@H](CCCCN)C(=O)N[C@@H](CCC(N)=O)C(=O)N[C@@H](CCCNC(=N)N)C(=O)N[C@@H](CCC(=O)O)C(=O)N[C@@H](CCC(N)=O)C(=O)N[C@@H](C)C(=O)N[C@@H](CCC(=O)O)C(=O)N[C@H](C(=O)N[C@@H](CC(N)=O)C(=O)N[C@@H](CCC(=O)O)C(=O)N[C@@H](CCC(N)=O)C(=O)N[C@H](C(=O)N[C@@H](CC(C)C)C(=O)N[C@@H](C)C(=O)N[C@@H](CCC(N)=O)C(=O)N[C@H](C(N)=O)C(C)C)[C@@H](C)CC)[C@@H](C)O)[C@@H](C)CC)[C@@H](C)CC)C(C)C)C(C)C` [compound 116] (H-[NMeI]VLSLD[dV]PIKLK([AEEA-AEEA-γGlu-C18 diacid])KILLEQEKQKKQREQAETNEQILAQV-NH2) registered an EC50 on human CRF2a receptor of 0.37 nM. Further, at CFR1R receptor, the “Emax (% I)” value is reported as 0 % I and the concentration for a half-maximal effect (EC50) was over 250 nM.

In the case of `CC[C@H](C)[C@H](NC)C(=O)N[C@H](C(=O)N[C@@H](CC(C)C)C(=O)N[C@@H](CO)C(=O)N[C@@H](CC(C)C)C(=O)N[C@@H](CC(=O)O)C(=O)N[C@@H](C(=O)N1CCC[C@H]1C(=O)N[C@H](C(=O)N[C@@H](CCCCN)C(=O)N[C@@H](CC(C)C)C(=O)N[C@@H](CCCCNC(=O)COCCOCCNC(=O)COCCOCCNC(=O)CC[C@H](NC(=O)CCCCCCCCCCCCCCCCC(=O)O)C(=O)O)C(=O)N[C@@H](CCCCN)C(=O)N[C@H](C(=O)N[C@@H](CC(C)C)C(=O)N[C@@H](CC(C)C)C(=O)N[C@@H](CCC(=O)O)C(=O)N[C@@H](CCC(N)=O)C(=O)N[C@@H](CCC(=O)O)C(=O)N[C@@H](CCCCN)C(=O)N[C@@H](CCC(N)=O)C(=O)N[C@@H](CCCCN)C(=O)N[C@@H](CCCCN)C(=O)N[C@@H](CCC(N)=O)C(=O)N[C@@H](CCCNC(=N)N)C(=O)N[C@@H](CCC(=O)O)C(=O)N[C@@H](CCC(N)=O)C(=O)N[C@@H](C)C(=O)N[C@@H](CCC(=O)O)C(=O)N[C@H](C(=O)N[C@@H](CC(N)=O)C(=O)NC1(C(=O)N[C@@H](CCC(N)=O)C(=O)N[C@H](C(=O)N[C@@H](CC(C)C)C(=O)N[C@@H](C)C(=O)N[C@@H](CCC(N)=O)C(=O)N[C@H](C(N)=O)C(C)C)[C@@H](C)CC)CCNCC1)[C@@H](C)O)[C@@H](C)CC)[C@@H](C)CC)C(C)C)C(C)C` [compound 117] (H-[NMeI]VLSLD[dV]PIKLK([AEEA-AEEA-γGlu-C18 diacid])KILLEQEKQKKQREQAETN[Api]QILAQV-NH2), the concentration giving a half-maximal response (EC50) was 0.63 nM at human CRF2a receptor and over 250 nM at CFR1R receptor. In addition, the “Emax (% I)” value on CFR1R receptor is recorded as 3 % I.

What is called EC50 is the midpoint of the concentration-response curve. Low readings indicate an effect from little substance, high ones a need for much substance.

The values above are taken from patent publication US20260001928A1 (CORTERIA PHARMACEUTICALS, priority 2022, published 2026).
